Consider 5 compounds from US20210308138A1, “TISSUE TRANSGLUTAMINASE MODULATORS FOR MEDICINAL USE” (Aarhus Universitet, priority 2018, published 2021).

One test deals with T1, purified human TG2 (Homo sapiens, UniProt P21980).
T1 construct: purchased Zedira (Darmstadt, Germany); host or cells: insect cells
T1 sequence (P21980 1-687): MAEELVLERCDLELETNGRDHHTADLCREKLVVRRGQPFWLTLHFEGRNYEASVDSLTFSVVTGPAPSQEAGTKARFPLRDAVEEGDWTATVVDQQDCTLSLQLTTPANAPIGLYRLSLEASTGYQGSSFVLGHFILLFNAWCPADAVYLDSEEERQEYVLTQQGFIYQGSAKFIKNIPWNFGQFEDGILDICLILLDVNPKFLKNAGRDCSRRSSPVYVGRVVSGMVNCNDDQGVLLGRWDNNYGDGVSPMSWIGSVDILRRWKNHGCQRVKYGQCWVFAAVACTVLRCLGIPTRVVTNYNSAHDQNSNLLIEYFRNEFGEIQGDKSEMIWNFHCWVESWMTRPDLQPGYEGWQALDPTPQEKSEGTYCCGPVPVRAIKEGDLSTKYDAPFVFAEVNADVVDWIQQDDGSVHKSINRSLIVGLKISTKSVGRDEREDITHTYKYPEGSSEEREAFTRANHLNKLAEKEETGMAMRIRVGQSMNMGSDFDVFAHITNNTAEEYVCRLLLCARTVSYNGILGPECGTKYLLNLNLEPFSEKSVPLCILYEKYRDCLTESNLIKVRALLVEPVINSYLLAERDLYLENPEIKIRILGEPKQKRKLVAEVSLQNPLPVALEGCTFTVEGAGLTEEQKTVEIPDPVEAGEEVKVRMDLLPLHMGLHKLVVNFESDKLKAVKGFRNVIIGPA
Description: Conformational shift assay by native polyacrylamide gel electrophoresis (native-PAGE). The note with it: TG2 2.5 uM; 1 mM LDN-27219, 1 mM GTPNa2, or 0.2 mM Z-DON with CaCl2. Type of test: biochemical. The protocol: For the conformational shift assay using native polyacrylamide gel electrophoresis (native-PAGE) purified and functional human TG2 protein produced in insect cells was obtained from Zedira (Darmstadt, Germany).
Native gel electrophoresis experiments were performed using a method similar to those previously described (Pinkas D M, et al., PLoS Biol, 2007, 5(12), 2788-2796.) (Iversen R, et al., Proc Natl. Acad. Sci., 2014, 111(43), 17146-17151). Briefly, TG2 (2.5 uM) was incubated for 30 min at room temperature in preincubation buffer (75 mM imidazole, 0.5 mM EDTA, 5 mM DTT [pH 7.2], 10% DMSO) with or without 1 mM GTPNa2 or 1 mM LDN-27219 before adding Native Sample Buffer for Protein Gels (Bio-Rad) or in preincubation buffer with 0.2 mM Z-DON 30 min prior addition of 5 mM of CaCl2 for 20 min. Native buffer was added (dilution 1:2), and 1.5 ug of protein was loaded onto a 4-20% Criterion™ TGX Stain-Free™ gel (Bio-Rad) using Tris-glycine as the running buffer. For 75 min, 125 V was applied at 4° C. The bands were visualized using stain-free technology by exposing the gels to UV light and capturing the image using a PXi 4 Touch image analysis system (Syngene). Band intensity analysis was carried out using GeneTools 4 software (Syngene).

Test [1] relates to small mesenteric arteries. Description: Acetylcholine-induced endothelium-dependent relaxation of phenylephrine pre-contracted small mesenteric arteries, isometric myograph (ex vivo). Also on record: species or system Male Wistar rats. The note with it: 1 hour incubation; Z-DON 4·10^−5, Boc-DON 10^−5, VA-5 10^−5 mol/L; 12-14 weeks old rats. The method, then:
Small mesenteric arteries were mounted in microvascular myographs (Danish Myotechnology, Aarhus, Denmark) using two 40 μm wires and stretched to their optimal diameter for isometric tension recordings, which corresponded to 0.9 times the estimated internal diameter at 100 mmHg of transmural pressure. PSS solution in the myograph bath was heated to 37° C. and continuously bubbled with 5% CO2 in air to maintain pH (7.4). The vessel viability was tested at the beginning of each experiment by measuring the vasoconstrictor responses to a solution with a high K^+ concentration (KPSS), equivalent to PSS except that NaCl was exchanged for KCl on an equimolar basis, giving a final concentration of 123.7 mmol/L K^+ and the presence of endothelium was confirmed by addition of acetylcholine (ACh) (10^−5) after pre-constriction with noradrenaline (5·10^−6 mol/L), arteries with less than 75% of relaxation were discarded.
Mesenteric arteries from rats of different age were incubated with (10^−6 mol/L) LDN-27219 or vehicle for 25 minutes and pre-contracted with phenylephrine (Phe) (10^−5 mol/L). Then cumulative addition of acetylcholine (ACh) caused the relaxation of the mesenteric arteries and the concentration-response curves were constructed.
Rats of 5-7 weeks age, about 12 weeks age, and more than 30 weeks of age were tested respectively. The results of the isometric tension studies are shown in FIGS. 1, A), B) and C) respectively, each representing a different their age group.
(§1) The small mesenteric arteries were prepared in the same way is described in example 1.

Test [2] relates to vascular smooth muscle cells (VSMCs) potassium currents. Kind of test: Whole-cell patch-clamp of K+ outward currents in isolated vascular smooth muscle cells. The note with it: LDN-27219 3·10^−5 mol/L 12 min; VA-5 5·10^−5 mol/L one hour incubation. The class given is cell-based, rat. The method, then:
For isolation of VSMCs, rat mesenteric arteries were dissected as previously described, opened longitudinally and stored in ice-cold dissociation solution containing (mmol/L): 119 NaCl, 4.7 KCl, 1.18 KH2PO4, 1.17 MgSO4, 24.9 NaHCO3, 0.027 EDTA, and 11 glucose, pH=7.4. Arteries were then equilibrated during 10 min in a dissociation solution with bovine albumin serum (BSA; 1 mg/mL) at 37° C. and then exposed to the same solution supplemented with papain (0.5 mg/mL; Worthington Biochemical Corp., Lakewood, N.J., USA) and dithiothreitol (DTT; 1 mg/mL) at 37° C. for 8 min. Arteries were then washed in ice-cold dissociation solution and moved to dissociation solution containing BSA (1 mg/mL) and collagenase (0.7 mg/mL type F and 0.4 mg/mL type H; Worthington Biochemical Corp.) at 37° C. for 3 min. […]
Membrane currents were recorded under the whole-cell configuration of the patch-clamp technique using an Axon Multiclamp 700A amplifier (Axon instruments, Molecular Devices, CA, USA). […] Current-voltage relations were determined using 600 ms voltage ramps from −100 to 160 mV and a holding potential (Vh) of −65 mV for SMCs.
Amplitudes of K^+-outward currents were measured in control conditions and 12 min after the addition of LDN-27219 (3·10^−5 mol/L) to the extracellular solution by a perfusion system.

For a further test, the system named is Male Wistar rats. Description: Mean arterial pressure (MAP) in vivo measurement after intrajugular infusion. The note with it: VA-5 single dose 1 mg/kg, intrajugular infusion during 3 minutes; adult and older rats. The method, then:
For ‘in vivo’ experiments Wistar rats of different age were fasted 8 h before anesthesia with 35 mg/kg of S-ketamine and 50 mg/kg of pentobarbital sodium administered intraperitoneally.
Male Wistar rats with 12-14 and 30-35 weeks of age were anesthetized with s-ketamine (35 mg/kg) and pentobarbital (50 mg/kg) and placed on a heated blanket to maintain body temperature at 37° C. ECG needles were installed for electrocardiographic measurements and a solid state catheter (Millar Inc, Houston, USA) was introduced into the carotid artery to measure MAP. MAP and electrocardiographic data was continuously recorded on a computerized data acquisition system (PowerLab, ADInstruments). Adequate depth of anesthesia was checked periodically by the absence of the toe pinch withdrawal effect and ⅓ of the initial dose of anesthetics was administered intraperitoneally when needed (usually each 1½ h). Changes in MAP and electrocardiographic signal in response to intrajugular infusion during 3 minutes of different doses of LDN-27219 and the corresponding vehicle (PEG-400) were studied.
The Area Under the Curve (AUC) was calculated using Graphpad Prism 5.1 (GraphPad Software, San Diego, Calif., USA) for each response to the change in MAP that was collected during the experiments in example 3. The AUC gives information about the maximal response, and about the duration of the effect.
Rats of different age in these experiments were anesthetized, prepared and catheterized as described in Example 3.

For test [3], the system named is small mesenteric arteries. The note with it: M. Engholm et al., British J. Pharm. (2016), 173, 839-855; cited from earlier work.
Test [4] relates to small mesenteric arteries. Kind of test: Direct relaxation of U46619 pre-contracted small mesenteric arteries, concentration-response curves. Also on record: species or system Male Wistar rats. The note with it: U46619 4·10^−7 mol/L; LDN-27219 10^−8-10^−5 mol/L; Z-DON 10^−8-3·10^−4 mol/L; endothelium intact. The protocol: as §1
The small mesenteric arteries were pre-contracted with the thromboxane analogue, U46619 (4·10^−7 mol/L) and concentration-response curves for TG2 specific inhibitors, LDN-27219 (10^−8-10^−5 mol/L) and Z-DON (10^−8-3·10^−4 mol/L) were constructed. To study the role of the endothelial pathways in LDN-27219 relaxation, concentration-response curves were constructed for it in arteries whose endothelium had been removed mechanically by rubbing the lumen repeatedly with a human scalp hair.

With `Nc1nc2c(ncn2[C@@H]2O[C@H](COP(=O)([O-])OP(=O)([O-])OP(=O)([O-])[O-])[C@@H](O)[C@H]2O)c(=O)[nH]1.[Na+].[Na+].[Na+].[Na+]` [GTP, guanosine 5′-triphosphate sodium salt], the “relative abundance of closed / open conformation of TG2” value at purified human TG2 is listed as “completely force TG2 to its closed conformation”.

On to `C=CC(=O)NCCCC[C@H](NC(=O)OCc1ccccc1)C(=O)N1CCN(C(=O)c2cc3ccc(O)cc3oc2=O)CC1` [VA-5, (S)-Benzyl (6-acrylamido-1-(4-(7-hydroxy-2-oxo-2H-chromene-3-carbonyl)piperazin-1-yl)-1-oxohexan-2-yl)carbamate, reference compound], for which the “ACh relaxation compared to the vehicle” value in test [1] is reported as “slight inhibition of ACh relaxation”. In addition, the “potassium currents compared to control conditions” value in test [2] is given as “significantly smaller potassium currents”. In the test on Male Wistar rats, the “mean blood pressure (MAP)” value is on record as “did not produce any change in the mean blood pressure”.

With `NCCSSCCN` [cystamine], the “effects on endothelial pathways” value in test [3] is recorded as “lacked effects on endothelial pathways”.

On to “Boc-DON-Gln-Ile-Val-OMe [reference compound]”, for which, in test [1], the “ACh relaxation compared to the vehicle” value was “no significant effect”.

For “Z-DON-Val-Pro-Leu-OMe [reference compound]”, in test [1], the “ACh relaxation compared to the vehicle” value is listed as “slight inhibition of ACh relaxation”. The “relaxation of U46619 pre-contracted arteries” value in test [4] is given as “failed to induce any vasodilation”. At purified human TG2, the “relative abundance of closed / open conformation of TG2” value was “force its open conformation”.
